In ChEMBL document CHEMBL1151048, “Synthesis and antimicrobial activity of 5-thioabbeymycin: limitations of the iminothioether approach to carbinolamine-containing pyrrolobenzodiazepines” (1993):

What was measured:
Format in all cases: functional
Staphylococcus aureus [1] = test: Minimum bactericidal concentration against Staphylococcus aureus; value ranges from 2-8 ug cm-3
Pseudomonas aeruginosa [2] = test: Minimum bactericidal concentration against Pseudomonas aeruginosa; value ranges from 2-4 ug cm-3
Staphylococcus aureus [3] = test: Minimum inhibitory concentration against Staphylococcus aureus; value ranges from 2-4 ug cm-3
Pseudomonas aeruginosa [4] = test: Minimum inhibitory concentration against Pseudomonas aeruginosa; value ranges from 2-4 ug cm-3

O[C@H]1C[C@H]2C=Nc3ccccc3C(=S)N2C1
2 ug cm**-3: MBC (Staphylococcus aureus [1]) | MBC (Pseudomonas aeruginosa [2]) | MIC (Staphylococcus aureus [3]) | MIC (Pseudomonas aeruginosa [4])
